# Laboratory results from patent US6673839B1, “Pharmaceutical compositions with antitumour activity” (Universita' Degli Studi di Catania, priority 1998, dated 2004).
# Where a name gives a salt, the structure may show the parent alone.
# Test system: Yoshida tumour
# Assay: Chemopreventive effects on Yoshida tumour inoculation and thriving
# Assay type: in vivo, Sprague-Dowley rats
# Procedure: In order to elucidate the actual chemoprevention antitumour Potentialities of L-aC, 125 Sprague-Dowley rats (4 months old, mean weight: 200 g), under standard feeding and temperature conditions (25° C.), were divided in 5 groups and treated as follows:
# Group 1: 25 rats were intraperitoneally treated, on alternate days for 10 days, with 25 mg of L-aC diluted in 5 ml of saline solution. On day 10 they were inoculated with Yoshida tumour.
# Group 2: 25 rats were intraperitoneally treated, on alternate days for 10 days, with 25 mg of L-aC diluted in 5 ml of saline solution. On day 10 they were inoculated with Yoshida tumour. Starting from day 11, they were further treated intraperitoneally, on alternate days, with 25 mg of L-aC diluted in 5 ml of saline solution, for a further 10 days.
# Group 3: 25 previously untreated rats were inoculated, on day 10, with Yoshida tumour. Starting from day 14 they were intraperitoneally treated, on alternate days, with 25 mg of L-aC diluted in 5 ml of saline solution for 10 days.
# Group 4: 25 previously untreated rats were inoculated on day 10 with Yoshida tumour. On day 18 to 24 they were intraperitoneally treated, on alternate days, with 25 mg of L-aC diluted in 5 ml of saline solution for 10 days.
# Group 5: 25 previously untreated rats were inoculated on day 10 with Yoshida tumour. On day 18 to 24 they were subjected to emptying, on alternate days, of 5 ml of ascitic fluid which was substituted with 50 mg of L-aC diluted in 5 ml of saline solution.
# The onset and evolution of the tumour were checked by daily observation and weighing.
structure (smiles),measurement,setting,value
"CC(=O)OC(CC(=O)[O-])C[N+](C)(C)C [L-aC, L-acetylcarnitine hydrochloride]",animals with late ascites that died,"Group 2, of 20 ascites-free animals, within day 27",2
same,animals still alive with markedly low or even no ascites,"Group 2, day 27 of observation",3
same,animals still alive,"Group 3 (25 mg L-aC i.p. alternate days from day 14, inoculated day 10), day 27 of observation",16/25
same,surviving animals,"Group 3, inoculated day 10, 25 mg L-aC i.p. alternate days from day 14 for 10 days, day 01 of observation",25
same,surviving animals,"Group 3, inoculated day 10, 25 mg L-aC i.p. alternate days from day 14 for 10 days, day 03",25
same,surviving animals,"Group 3, inoculated day 10, 25 mg L-aC i.p. alternate days from day 14 for 10 days, day 05",25
same,surviving animals,"Group 3, inoculated day 10, 25 mg L-aC i.p. alternate days from day 14 for 10 days, day 07",25
same,surviving animals,"Group 3, inoculated day 10, 25 mg L-aC i.p. alternate days from day 14 for 10 days, day 09",25
same,surviving animals,"Group 3, inoculated day 10, 25 mg L-aC i.p. alternate days from day 14 for 10 days, day 10",25
same,surviving animals,"Group 3, inoculated day 10, 25 mg L-aC i.p. alternate days from day 14 for 10 days, day 11",25
same,surviving animals,"Group 3, inoculated day 10, 25 mg L-aC i.p. alternate days from day 14 for 10 days, day 14",25
same,surviving animals,"Group 3, inoculated day 10, 25 mg L-aC i.p. alternate days from day 14 for 10 days, day 18",25
same,surviving animals,"Group 3, inoculated day 10, 25 mg L-aC i.p. alternate days from day 14 for 10 days, day 21",20
same,surviving animals,"Group 3, inoculated day 10, 25 mg L-aC i.p. alternate days from day 14 for 10 days, day 24",18
same,surviving animals,"Group 3, inoculated day 10, 25 mg L-aC i.p. alternate days from day 14 for 10 days, day 27",16
same,surviving animals,"Group 3, inoculated day 10, 25 mg L-aC i.p. alternate days from day 14 for 10 days, day 30",16
same,surviving animals,"Group 3, inoculated day 10, 25 mg L-aC i.p. alternate days from day 14 for 10 days, day 45",16
same,ascites amount in survivors,"Group 3, day 27",markedly low or even no ascites amount
same,animals still alive,"Group 4 (25 mg L-aC i.p. alternate days day 18 to 24, inoculated day 10), day 27 of observation",11/25
same,surviving animals,"Group 4, inoculated day 10, 25 mg L-aC i.p. alternate days day 18 to 24, day 01 of observation",25
same,surviving animals,"Group 4, inoculated day 10, 25 mg L-aC i.p. alternate days day 18 to 24, day 03",25
same,surviving animals,"Group 4, inoculated day 10, 25 mg L-aC i.p. alternate days day 18 to 24, day 05",25
same,surviving animals,"Group 4, inoculated day 10, 25 mg L-aC i.p. alternate days day 18 to 24, day 07",25
same,surviving animals,"Group 4, inoculated day 10, 25 mg L-aC i.p. alternate days day 18 to 24, day 09",25
same,surviving animals,"Group 4, inoculated day 10, 25 mg L-aC i.p. alternate days day 18 to 24, day 10",25
same,surviving animals,"Group 4, inoculated day 10, 25 mg L-aC i.p. alternate days day 18 to 24, day 11",25
same,surviving animals,"Group 4, inoculated day 10, 25 mg L-aC i.p. alternate days day 18 to 24, day 14",25
same,surviving animals,"Group 4, inoculated day 10, 25 mg L-aC i.p. alternate days day 18 to 24, day 18",25
same,surviving animals,"Group 4, inoculated day 10, 25 mg L-aC i.p. alternate days day 18 to 24, day 21",15
same,surviving animals,"Group 4, inoculated day 10, 25 mg L-aC i.p. alternate days day 18 to 24, day 24",13
same,surviving animals,"Group 4, inoculated day 10, 25 mg L-aC i.p. alternate days day 18 to 24, day 27",11
same,surviving animals,"Group 4, inoculated day 10, 25 mg L-aC i.p. alternate days day 18 to 24, day 30",11
same,surviving animals,"Group 4, inoculated day 10, 25 mg L-aC i.p. alternate days day 18 to 24, day 45",11
same,ascites amount in survivors,"Group 4, day 27",markedly low or even no ascites amount
same,day of observation by which all animals died,"Group 5 (50 mg L-aC replacing 5 ml ascitic fluid, alternate days day 18 to 24)",≤ 26 days
same,surviving animals,"Group 5, inoculated day 10, 50 mg L-aC replacing 5 ml ascitic fluid alternate days day 18 to 24, day 01 of observation",25
same,surviving animals,"Group 5, inoculated day 10, 50 mg L-aC replacing 5 ml ascitic fluid alternate days day 18 to 24, day 03",25
same,surviving animals,"Group 5, inoculated day 10, 50 mg L-aC replacing 5 ml ascitic fluid alternate days day 18 to 24, day 05",25
same,surviving animals,"Group 5, inoculated day 10, 50 mg L-aC replacing 5 ml ascitic fluid alternate days day 18 to 24, day 07",25
same,surviving animals,"Group 5, inoculated day 10, 50 mg L-aC replacing 5 ml ascitic fluid alternate days day 18 to 24, day 09",25
same,surviving animals,"Group 5, inoculated day 10, 50 mg L-aC replacing 5 ml ascitic fluid alternate days day 18 to 24, day 10",25
same,surviving animals,"Group 5, inoculated day 10, 50 mg L-aC replacing 5 ml ascitic fluid alternate days day 18 to 24, day 11",25
same,surviving animals,"Group 5, inoculated day 10, 50 mg L-aC replacing 5 ml ascitic fluid alternate days day 18 to 24, day 14",25
same,surviving animals,"Group 5, inoculated day 10, 50 mg L-aC replacing 5 ml ascitic fluid alternate days day 18 to 24, day 18",25
same,surviving animals,"Group 5, inoculated day 10, 50 mg L-aC replacing 5 ml ascitic fluid alternate days day 18 to 24, day 21",8
same,surviving animals,"Group 5, inoculated day 10, 50 mg L-aC replacing 5 ml ascitic fluid alternate days day 18 to 24, day 24",3
same,surviving animals,"Group 5, inoculated day 10, 50 mg L-aC replacing 5 ml ascitic fluid alternate days day 18 to 24, day 27",0
same,surviving animals,"Group 5, inoculated day 10, 50 mg L-aC replacing 5 ml ascitic fluid alternate days day 18 to 24, day 30",0
same,surviving animals,"Group 5, inoculated day 10, 50 mg L-aC replacing 5 ml ascitic fluid alternate days day 18 to 24, day 45",0
same,general condition of surviving animals,day 45 of observation,good health
same,deaths during further observation,"survivors, further 6 weeks",no deaths occurred
